Assay results published in patent US20100279944A1, “SUPPRESSION AND TREATMENT OF NEUROPATHIC PAIN” (priority 2006, published 2010).
Where a SMILES comes first, the peptide text is derived from it. [ ]: non-standard residue; d: D form.

How the values were obtained:
[1] = Mathison et al., 1997; cited from earlier work
[2] = Recovery, side effects and body weight of SCI rats after peptide treatment; assay type: in vivo, rat; conditions: 200 μg/kg i.v., six bolus doses after SCI
Protocol: Seventeen individually housed male Wistar rats (Charles River, St. Constant, Quebec, 250-320 g) were used to assess mechanical allodynia and hind-limb locomotion. Males were used in these studies to avoid the confounding variable of hormonal cycles on the assessments of neuropathic pain. All protocols were carried out in accordance with the guidelines set forth by the Canadian Guide to Care and Use of Experimental Animals. All experiments conformed to international guidelines on the ethical use of animals and minimized the number of animals used and their suffering. All rats received pre-operative medication and halothane anesthesia for surgical interventions to accomplish clip compression spinal cord injury (SCI), as described previously (Gris et al., (2004), J. Neurosci., v. 24, pp. 4043-4051; Weaver et al., (2001), J. Neurotrauma, v. 18, pp. 1107-1119). A dorsal laminectomy was performed to expose the 12th thoracic (T12) spinal cord segment. The cord was injured by clip compression for 60 sec without disrupting the dura or adjacent dorsal roots. A modified aneurysm clip (Toronto Western Research Institute, University of Toronto, Toronto, Ontario, Canada) calibrated at 35 g was used at the T12 segment to produce a moderate injury. The rats received postoperative care as described previously (Gris, supra). […]

Molecule	lowest dose showing biological effects [1] [μg/kg]	side effects of treatment [2]
SGP-T: submandibular gland peptide T; amino acid sequence TDIFEGG	1	
N[C@H](Cc1ccccc1)C(=O)N[C@H](CC(=O)O)C(=O)NCC(=O)O [fdG, D-phenylalanine-D-aspartic acid-Glycine] (H-[dF]-[dD]-Gly-OH)		No overt side effects
